We go through four molecules from US9730979B2, “Methods for decreasing set in inhibiting protein phosphatase 2A (PP2A) and/or increasing the activity of cyclin-dependent kinase 5 (CDK5) by an APOE peptide” (COGNOSCI, INC., priority 2006, dated 2017).

The subject of experiment [1] is NFκB. As to the kind of experiment: Nuclear NFκB in LPS-stimulated colonic epithelial cells, gel shift with radiolabeled oligonucleotide. In kind it is cell-based. The settings on record: nuclear extracts. As to the method:
In the dephosphorylated state, IκB binds to the transcription factor NFκB and prevents it from translocating to the nucleus to activate transcription of pro-inflammatory cytokines. […] A radiolabeled oligonucleotide containing a NFκB binding site was added to the proteins from the nuclear extracts and the proteins were subsequently separated by non-denaturing polyacrylamide gel electrophoresis. The amount of NFκB present in the nuclear extracts was detected by autoradiography (FIG. 10D). Nuclear NFκB was reduced in the presence of COG 133 providing further evidence that this signal transduction cascade is suppressed in cells treated with ApoE peptides.

Experiment [2] has as its system BV2 cells. Nature of the experiment: LPS-induced nitric oxide production in BV2 cells with and without siRNA to SET. In kind it is cell-based, mouse. As to conditions: BV2 cells transfected with siRNA to SET. As to the method: See PCT application PCT/US05/31431 which claims priority to U.S. Provisional Applications 60/606,506, filed Sep. 2, 2004, 60/608,148, filed Sep. 9, 2004, and 60/606,507, filed Sep. 2, 2004 which are herein incorporated by reference in their entireties. BV2 cells were transfected with siRNA to SET. BV2 cells transfected with the siRNA and BV2 cells not transfected with the siRNA were treated with COG 133, LPS, or LPS and COG 133 as described in the above-referenced patent applications. Untreated BV2 cells were used as a control. FIG. 3 is a graph of the results. Bars three and seven correspond to LPS without siRNA to SET and with siRNA to SET, respectively. […] Similarly, there is a reduction in nitric oxide in the group treated with LPS and COG 133 and transfected with siRNA to SET compared to the group treated with LPS and COG 133 and not transfected with siRNA (lanes 8 and 4, respectively).

The test system of experiment [3] is p38 MAP kinase. Nature of the experiment: LPS-induced phosphorylation of p38 MAP kinase in BV2 microglia, western blot. Format: cell-based, mouse. As to conditions: LPS plus peptide, 30 minutes, normalized to GAPDH. As to the method:
(§1) Mouse BV2 microglia were incubated with either a negative control, LPS, or LPS and COG 133 (SEQ ID NO: 1) peptide for 30 minutes. Cells were lysed and a clarified extract prepared by centrifugation. Polyacrylamide gels were loaded with 30 μg of extract per lane and run in SDS buffer. […] Membranes were then probed with phospho-specific p38 MAP kinase, MKK 3/6, JNK, ERK, and IκB antibodies. Membranes were developed with Enhanced Chemiluminescence substrates (GE healthcare) and visualized by exposure to film. Membranes were then stripped and reprobed for total p38, JNK, Erk or IκB using non phospho-specific antibodies as previously described. In some experiments, the membranes were probed for GAPDH protein. Densitometry analysis of the western blots was conducted and the signals from phosphorylated p38 MAP kinase were normalized to those from GAPDH. […] PP2A has been reported to bind and dephosphorylate p38 MAP kinase (Sundaresan & Farndale 2002 FEBS Letters 528, 139). Given that COG peptides can increase PP2A activity (Example 5), it is likely that the dephosphorylation of p38 MAP kinase occurs through the activation of PP2A by COG binding to SET.

The test system of experiment [4] is c-Jun N-terminal kinase (JNK). As to the kind of experiment: LPS-induced phosphorylation of JNK in BV2 microglia, western blot. The settings on record: LPS plus peptide, 30 minutes. In kind it is cell-based, mouse. As to the method: as §1
The target in experiment [5] is T1, SET bound to P35 (Homo sapiens, UniProt Q01105).
T1 construct: from tissue; host or cells: human brain lysate
As to the kind of experiment: Co-precipitation of SET with immunoprecipitated p35 from human brain lysate. In kind it is binding. As to conditions: 50 μM peptide, SET normalized to P35. The method, then: FIG. 13. Human brain lysate was incubated with 50 μM of each of the peptides indicated. P35 was subsequently immunoprecipitated from 1 mg of the peptide-treated lysate. Western blots were performed to measure co-precipitation of SET protein (left panel). […] Signals from SET were normalized to signals for P35 protein.
(§2) Cdk5 requires the activator protein p35 for kinase activity. Although cdk5 is ubiquitously expressed, p35 expression is restricted to neurons of the central nervous system, thus limiting cdk5 associated kinase activity to these neurons. Cleavage of p35 to p25 disregulates cdk5 kinase activity causing the kinase to become constitutively active. Constitutive kinase activity of cdk5/p25 has been implicated in the aberrant hyperphosphorylation of tau protein and subsequent neurodegeneration found in Alzheimer's disease and other tauopathies. […] Therefore, it may be possible to reduce cdk5 kinase activity by interfering with the interaction between SET and the cdk5/p35 complex. To test this possibility, the effects of COG peptides on the binding of SET to p35 were examined. Mouse brain lysates (FIG. 12) or human brain lysates (FIG. 13) were incubated with 50 μM of COG 056 (reverse sequence of COG133), COG 112, COG133, or COG 1410. Activator protein p35 was immunoprecipitated with an anti-p35 antibody and protein A agarose beads from 1 mg of the peptide-treated brain lysates. […]

Experiment [6] has as its system extracellular regulated kinase (ERK) 1/2. As to the kind of experiment: LPS-induced phosphorylation of ERK 1/2 in BV2 microglia, western blot. Format: cell-based, mouse. As to conditions: LPS plus peptide, 30 minutes. The method, then:
as §1
(In general: Immunoblotting shows a protein as a band on a membrane.)

The subject of experiment [7] is BV2 cells. The settings on record: without siRNA; previously shown; cited from earlier work.
Experiment [8] has as its system IκB. Nature of the experiment: LPS-induced phosphorylation of IκB in BV2 microglia, western blot. In kind it is cell-based, mouse. As to conditions: LPS plus peptide, 30 minutes. The method, then:
as §1

Experiment [9] concerns human THP1 cells. As to the kind of experiment: LPS-induced TNFα production in human THP1 cells with and without siRNA to SET. In kind it is cell-based. The settings on record: SET removed by siRNA-based silencing. The text has this: Consistent with the mechanism of SET as an inhibitor of Protein Phosphatase 2A (PP2A), a reduction of the LPS-induced TNF response as well as elimination of the effect of COG 133 was observed when SET was removed from the cells.

Experiment [10] has as its system tau. Nature of the experiment: Okadaic acid induced phospho-tau (AT-8) in mouse cortex. Format: in vivo, C57B1/6 mice. The method, then:
C57B1/6 mice were injected intravenously with increasing concentrations of okadaic acid (OA) (calculated by administration of a sufficient quantity of OA to produce the indicated μM concentration in a blood volume of 2 mL). One hour after OA was administered, mice were euthanized by decapitation and the brain removed. The cortex was isolated, flash frozen with liquid nitrogen, ground to a fine powder and an extract made by homogenization of the powder in an extraction buffer containing protease and phosphatase inhibitors. Protein extracts were separated by SDS-PAGE, transferred to nitrocellulose membranes, and probed for phospho-tau using the AT-8 antibody that recognizes phosphorylation of Ser202 and Thr205 of tau. Phospho-tau signals were normalized to signals from GAPDH protein. […] To determine the effect of COG peptides on the phosphorylation status of the tau protein, 5 mg/kg of COG 1410 was administered to the mice by subcutaneous injection 15 minutes prior to OA administration. FIG. 11B depicts the results of this series of experiments.

Experiment [11] has as its system PP2A. Nature of the experiment: PP2A activity (rate of phosphate release) of PP2A immunoprecipitated from treated RAW cells. In kind it is cell-based, mouse. As to conditions: 10 nM okadaic acid alone, 1 hour. As to the method:
Mouse macrophagic RAW cells were incubated with either 100 ng/mL LPS, 1 μM COG 112 (COG 133 conjugated to antennapedia), LPS and COG 112, 10 nM okadaic acid (an inhibitor of PP2A), or okadaic acid and COG 112. After 1 hour, cells were lysed and PP2A was immunoprecipitated by adding an antibody targeted to the catalytic C-subunit of PP2A. Half of the immunoprecipitate was separated by SDS-PAGE, blotted on to nitrocellulose, and probed with an anti-PP2AC antibody. The remaining portion was assayed for activity by adding 125 μL assay cocktail containing a phospho-threonine substrate peptide to the immunoprecipitated enzyme. After incubating at 37° C. with shaking, a 25 μL aliquot was removed and added to an ammonium molybdate solution (Upstate) that chelates free phosphate and changes color upon chelate formation. Aliquots were removed at various time intervals and the amount of free phosphate released from the peptide was determined by comparison to a phosphate standard curve. The rate of phosphate release was determined by linear fit to the time course data and was normalized to the relative PP2A concentration. PP2A activity, measured by the rate of phosphate release, is increased in the presence of COG 112 (FIG. 8), as would be expected if SET inhibition of PP2A was eliminated by binding of COG112 to SET. […]

The conditions of experiment [12]: relative to COG 133; cited from earlier work.
Experiment [13] addresses T2, SET bound to P35 (Mus musculus, UniProt Q9EQU5).
T2 construct: from tissue; host or cells: mouse brain lysate
Nature of the experiment: Co-precipitation of SET with immunoprecipitated p35 from mouse brain lysate. In kind it is binding. The settings on record: 50 μM peptide, SET normalized to P35. As to the method: FIG. 12. Mouse brain lysate was incubated with 50 μM of each of the peptides indicated. P35 was subsequently immunoprecipitated from 1 mg of the peptide-treated lysate. Western blots were performed to measure co-precipitation of SET protein (left panel). […] Signals from SET were normalized to signals for P35 protein. Results with COG 133 are not shown and were inconclusive possibly due to unequal protein loading.
as §2, with “1410.” for “1410. Activator protein p35 was immunoprecipitated with an anti-p35 antibody and protein A agarose beads from 1 mg of the peptide-treated brain lysates.”

The subject of experiment [14] is SET.
Procedure: COG 133-biotin or a biotin control was added to total protein from BV2 microglial cells. Proteins binding to Cog-biotin or biotin were collected by immunoprecipitation with streptavidin beads. Beads were extensively washed to remove non-specifically bound proteins. Proteins specifically bound to the streptavidin were eluted and denatured with laemmli sample buffer and run on an SDS/PAGE gel. After electrophoresis, the gel was stained by coomassie/silver stain to visualize protein bands.
Silver stained bands containing the COG 133-binding protein were excised from the gel, and protein was extracted from the gel slices, digested with a protease like trypsin, and the proteolytic fragments analyzed by mass spectrometry. The sequence of selected proteolytic fragments was accomplished by the MS/MS method. The sequences of the proteolytic fragments and their molecular weights were compared against amino acid sequences and molecular weights of known sequences in the NCBI GenBank by methods known in the art.
BV2 microglial cells were cultured and contacted with biotin labeled COG 133. Total protein extracts were prepared from treated BV2 cells and biotin-containing complexes isolated with streptavidin-agarose beads. After washing of beads, proteins were eluted by boiling in Laemmli sample buffer and denatured proteins were separated on a SDS-PAGE gel. […]
The target in experiment [15] is T3, SET from human brain (Homo sapiens, UniProt Q01105).
T3 construct: pulls down SET from human brain extracts; from tissue; host or cells: human brain homogenate
As to the kind of experiment: Biotinylated COG 133 pull-down of SET from human brain extract, competition with excess peptide. In kind it is binding. As to the method: Human brain was homogenized in PBS buffer with a protease cocktail tablet and centrifuged to remove cellular debris. 100 ng of biotinylated COG 133 (COG 133 peptide with biotin attached to the N-terminus) was added to 1 mg of clarified supernatant. After 4 hours of incubation at room temperature, 50 μL of a 50% slurry of streptavidin agarose beads were added. After an additional hour of incubation, the beads were pelleted by centrifugation. The beads were washed 3 times with PBS buffer containing 0.1% tween 20 detergent. 50 μL of a 2×SDS PAGE loading buffer (containing DTT) were added to the washed beads and the samples were boiled for 2 minutes. Polyacrylamide gels were loaded with either 40 μL of extract per lane or 10 μg of total brain extract protein (control lane) and run in SDS buffer. […] Membranes were then probed with an anti-SET antibody. Blots were developed with Enhanced Chemiluminescence substrates (GE healthcare) and visualized by exposure to film.
In a related experiment, derivatives of the COG 133 peptide were tested for SET binding. Human brain extracts were prepared as described above. A 10-fold excess of COG 1410 or COG 112 peptide was added to the brain extract and incubated for 10 minutes. Next, 100 ng of biotinylated COG 133 was added to the extract and incubated for four hours at room temperature. […]

T3 sequence (Q01105 whole entry): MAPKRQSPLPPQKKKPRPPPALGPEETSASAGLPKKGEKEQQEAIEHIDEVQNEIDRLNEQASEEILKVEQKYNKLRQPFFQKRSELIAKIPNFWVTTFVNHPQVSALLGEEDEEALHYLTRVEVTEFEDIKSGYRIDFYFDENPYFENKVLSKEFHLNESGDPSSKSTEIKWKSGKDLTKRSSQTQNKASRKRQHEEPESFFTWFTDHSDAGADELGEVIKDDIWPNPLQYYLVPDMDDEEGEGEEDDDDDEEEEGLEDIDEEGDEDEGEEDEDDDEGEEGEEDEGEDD
Sequence of SET (Q9EQU5 37-289 limits assumed): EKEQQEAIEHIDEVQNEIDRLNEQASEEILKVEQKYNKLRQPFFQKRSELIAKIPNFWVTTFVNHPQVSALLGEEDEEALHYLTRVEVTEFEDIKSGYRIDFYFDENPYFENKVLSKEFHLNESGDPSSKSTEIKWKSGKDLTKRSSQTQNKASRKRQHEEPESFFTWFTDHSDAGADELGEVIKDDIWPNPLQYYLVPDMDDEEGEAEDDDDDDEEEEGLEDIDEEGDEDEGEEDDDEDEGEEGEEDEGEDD
T1 sequence (Q01105 2-290 limits assumed): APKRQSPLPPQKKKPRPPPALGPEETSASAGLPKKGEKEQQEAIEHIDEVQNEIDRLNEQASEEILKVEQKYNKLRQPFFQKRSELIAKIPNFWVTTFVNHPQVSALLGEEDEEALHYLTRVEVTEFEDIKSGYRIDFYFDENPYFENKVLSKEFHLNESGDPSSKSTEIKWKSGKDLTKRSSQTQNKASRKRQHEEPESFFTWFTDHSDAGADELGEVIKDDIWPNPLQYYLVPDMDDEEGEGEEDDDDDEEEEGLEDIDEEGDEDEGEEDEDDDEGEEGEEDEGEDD
T2 sequence (Q9EQU5 2-289 limits assumed): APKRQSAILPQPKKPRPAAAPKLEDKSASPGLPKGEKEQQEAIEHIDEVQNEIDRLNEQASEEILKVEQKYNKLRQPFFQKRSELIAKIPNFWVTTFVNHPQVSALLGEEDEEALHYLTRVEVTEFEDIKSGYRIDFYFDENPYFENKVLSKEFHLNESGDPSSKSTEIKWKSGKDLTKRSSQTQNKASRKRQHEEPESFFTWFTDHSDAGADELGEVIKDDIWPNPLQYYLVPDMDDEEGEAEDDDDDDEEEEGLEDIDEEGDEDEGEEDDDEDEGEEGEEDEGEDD

LRVRLASHLRKLRKRLL [COG 133]: the “nuclear NFκB” value in [1] is “reduced”. Moreover, in experiment [2], the “nitric oxide, LPS+COG 133+siRNA versus LPS+siRNA” value is listed as “not a significant difference”. Moreover, the “phosphorylation of p38 MAP kinase” value in experiment [3] is given as “decrease in phosphorylation”. Further, in experiment [4], the “LPS-induced phosphorylation of JNK” value is “reduces the LPS-induced phosphorylation”. Further, in experiment [5], the “amount of SET bound to P35” value is “reduce the amount of SET bound to P35”. Also, the “LPS-induced phosphorylation of ERK” value in [6] was “reduces the LPS-induced phosphorylation”. Also, the “LPS-induced nitric oxide production” value in [7] is “reduce LPS-induced nitric oxide production”. Further, in experiment [8], the “LPS-induced phosphorylation of IκB” value is on record as “reduces the LPS-induced phosphorylation”. The “effect in reducing LPS-induced TNFα production” value in experiment [9] is recorded as “eliminated”.

As for `C=C1[C@@H](O)[C@@H]2O[C@]3(CC[C@H](/C=C/[C@@H](C)[C@@H]4CC(C)=C[C@@]5(O[C@H](C[C@@](C)(O)C(=O)O)CC[C@H]5O)O4)O3)CC[C@H]2O[C@@H]1[C@@H](O)C[C@H](C)[C@H]1O[C@@]2(CCCCO2)CC[C@H]1C` [okadaic acid, reference compound], in experiment [10] (okadaic acid intravenously, increasing concentrations, one hour, normalized to GAPDH), the “phospho-tau in the cortex” value is “concentration-dependent increase”. Besides, the “baseline PP2A activity” value in [11] is given as “decrease in baseline PP2A activity”.

Turning to Ac-AS-Aib-LRKL-Aib-KRLL-NH2 [COG 1410], the “phosphorylated tau protein induced by OA” value in experiment [10] (mouse, in vivo) was “reduced the amount of phosphorylated tau protein”. Further, the “gain in therapeutic window as compared to COG 133” value in experiment [12] is 4 fold. Further, the “amount of SET bound to P35” value in experiment [13] and in experiment [5] was “reduce the amount of SET bound to P35” throughout. For the same molecule, the “competition with biotinylated COG 133 for binding to SET” value in experiment [14] (BV2 cells, anti-SET western blot) is recorded as “competes with COG 133 in binding to SET”. For the same molecule, the “SET protein pulled down with biotinylated COG 133” value in experiment [15] (10-fold excess of competitor peptide, human brain extract) is given as “reduces the amount of SET protein pulled down”.

In the case of “biotinylated COG 133 [reference compound]”, the “binding to SET” value in experiment [14] was “uniquely bind”; in experiment [15] (100 ng peptide in 1 mg human brain supernatant, streptavidin pull-down), “binds to and pulls down SET”.
